From patent publication US20250098679A1, “HERBICIDAL PYRIDONE DERIVATIVES” (SYNGENTA CROP PROTECTION AG, priority 2021, published 2025)

How the values were obtained:
Type in all cases: in vivo
Conditions in all cases: evaluated after 13 days
[1] = test system: Zea mays (ZEAMX); assay: Pre-emergence Test, Zea mays (ZEAMX)
[2] = test system: Amaranthus retoflexus (AMARE); assay: Post-emergence Test, Amaranthus retoflexus (AMARE); set-up: key to percentage damage caused to the plant, AMARE (five-point scale): 5=81-100%, 4=61-80%, 3=41-60%, 2=21-40%, 1=0-20% damage
How it was run: (§1)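 Application was a spray of acetone/water (50:50) with 0.5% Tween 20 onto pots of test species sown in standard soil. Unless otherwise stated, the rate was 1000 g/ha. After 13 days under glasshouse conditions (24/16 °C, 65% humidity), injury was scored from 1 (0-20%) to 5 (81-100%).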

[3] = test system: Setaria faberi (SETFA); assay: Post-emergence Test, Setaria faberi (SETFA); set-up: key to percentage damage caused to the plant, SETFA (five-point scale): 5=81-100%, 4=61-80%, 3=41-60%, 2=21-40%, 1=0-20% damage
How it was run: as §1

[4] = test system: Echinochloa crus-galli (ECHCG); assay: Pre-emergence Test, Echinochloa crus-galli (ECHCG)
[5] = test system: Zea mays (ZEAMX); assay: Post-emergence Test, Zea mays (ZEAMX); set-up: key to percentage damage caused to the plant, ZEAMX (five-point scale): 5=81-100%, 4=61-80%, 3=41-60%, 2=21-40%, 1=0-20% damage
How it was run: as §1

[6] = test system: Amaranthus retoflexus (AMARE); assay: Pre-emergence Test, Amaranthus retoflexus (AMARE)
[7] = test system: Ipomoea hederacea (IPOHE); assay: Pre-emergence Test, Ipomoea hederacea (IPOHE)
[8] = test system: Amaranthus palmeri (AMAPA); assay: Post-emergence Test, Amaranthus palmeri (AMAPA); set-up: key: 5=81-100%, 4=61-80%, 3=41-60%, 2=21-40%, 1=0-20% damage
How it was run: as §1

[9] = test system: Setaria faberi (SETFA); assay: Pre-emergence Test, Setaria faberi (SETFA)
[10] = test system: Echinochloa crus-galli (ECHCG); assay: Post-emergence Test, Echinochloa crus-galli (ECHCG); set-up: key to percentage damage caused to the plant, ECHCG (five-point scale): 5=81-100%, 4=61-80%, 3=41-60%, 2=21-40%, 1=0-20% damage
How it was run: as §1

[11] = test system: Amaranthus palmeri (AMAPA); assay: Pre-emergence Test, Amaranthus palmeri (AMAPA)
[12] = test system: Ipomoea hederacea (IPOHE); assay: Post-emergence Test, Ipomoea hederacea (IPOHE); set-up: key to percentage damage caused to the plant, IPOHE (five-point scale): 5=81-100%, 4=61-80%, 3=41-60%, 2=21-40%, 1=0-20% damage
How it was run: as §1

Row | Structure (SMILES) | Pre-emergence Test ZEAMX, percentage damage caused to the plant (five-point scale) ([1]; 1000 g/ha) | percentage damage caused to the plant, AMARE (five-point scale) ([2]; 250 g/Ha) | percentage damage caused to the plant, AMARE (five-point scale) ([2]; 1000 g/ha) | percentage damage caused to the plant, SETFA (five-point scale) ([3]; 250 g/Ha) | percentage damage caused to the plant, SETFA (five-point scale) ([3]; 1000 g/ha) | Pre-emergence Test ECHCG, percentage damage caused to the plant (five-point scale) ([4]; 1000 g/ha) | percentage damage caused to the plant, ZEAMX (five-point scale) ([5]; 250 g/Ha) | percentage damage caused to the plant, ZEAMX (five-point scale) ([5]; 1000 g/ha) | Pre-emergence Test AMARE, percentage damage caused to the plant (five-point scale) ([6]; 1000 g/ha) | Pre-emergence Test IPOHE, percentage damage caused to the plant (five-point scale) ([7]; 1000 g/ha) | percentage damage caused to the plant, AMAPA (five-point scale) ([8]; 250 g/Ha) | percentage damage caused to the plant, AMAPA (five-point scale) ([8]; 1000 g/ha) | Pre-emergence Test SETFA, percentage damage caused to the plant (five-point scale) ([9]; 1000 g/ha) | percentage damage caused to the plant, ECHCG (five-point scale) ([10]; 250 g/Ha) | percentage damage caused to the plant, ECHCG (five-point scale) ([10]; 1000 g/ha) | Pre-emergence Test AMAPA, percentage damage caused to the plant (five-point scale) ([11]; 1000 g/ha) | percentage damage caused to the plant, IPOHE (five-point scale) ([12]; 250 g/Ha) | percentage damage caused to the plant, IPOHE (five-point scale) ([12]; 1000 g/ha) | further results
1 | CCn1c(Cn2nc(Cl)cc2C(F)(F)F)cc(=O)c(C(=O)O)c1-c1ccc(Cl)c(Cl)c1 [Compound 104, 6-[[3-chloro-5-(trifluoromethyl)pyrazol-1-yl]methyl]-2-(3,4-dichlorophenyl)-1-ethyl-4-oxo-pyridine-3-carboxylic acid] | 5 (5=81-100%) | 3 (3=41-60%) | 4 (4=61-80%) | 4 (4=61-80%) | 4 (4=61-80%) | 5 (5=81-100%) | 4 (4=61-80%) | 4 (4=61-80%) | 1 (1=0-20%) | 4 (4=61-80%) | 3 (3=41-60%) | 4 (4=61-80%) | 5 (5=81-100%) | 4 (4=61-80%) | 4 (4=61-80%) | 1 (1=0-20%) | 4 (4=61-80%) | 3 (3=41-60%) | Pre-emergence Test ZEAMX, percentage damage caused to the plant (five-point scale) ([1]; 250 g/Ha (*)): 2 (2=21-40%); Pre-emergence Test ECHCG, percentage damage caused to the plant (five-point scale) ([4]; 250 g/Ha (*)): 5 (5=81-100%); Pre-emergence Test AMARE, percentage damage caused to the plant (five-point scale) ([6]; 250 g/Ha (*)): 1 (1=0-20%); Pre-emergence Test IPOHE, percentage damage caused to the plant (five-point scale) ([7]; 250 g/Ha (*)): 1 (1=0-20%); Pre-emergence Test SETFA, percentage damage caused to the plant (five-point scale) ([9]; 250 g/Ha (*)): 5 (5=81-100%); Pre-emergence Test AMAPA, percentage damage caused to the plant (five-point scale) ([11]; 250 g/Ha (*)): 1 (1=0-20%)
2 | CCn1c(Cn2nc(C(F)(F)F)nc2C)cc(=O)c(C(=O)O)c1-c1ccc(Cl)c(Cl)c1 [Compound 108, 2-(3,4-dichlorophenyl)-1-ethyl-6-[[5-methyl-3-(trifluoromethyl)-1,2,4-triazol-1-yl]methyl]-4-oxo-pyridine-3-carboxylic acid] | 0 | 0 | 0 | 1 (1=0-20%) | 2 (2=21-40%) | 0 | 0 | 1 (1=0-20%) | 0 | 0 | 0 | 0 | 0 | 1 (1=0-20%) | 2 (2=21-40%) | 0 | 0 | 0 | –
